According to patent publication EP0099122A2, “Compositions comprising pepstatin and an histamine H2-receptor antagonist having an enhanced antiulcer activity” (Bristol-Myers Company, priority 1982, dated 1984):
Marks after values point to notes of the source that are not given here.

Assays:
[1] = test system: HCl-Induced Formation of Gastric Lesions; assay: HCl-induced gastric erosions in rats (modified method of Robert et al.); type: in vivo, Long Evans rats; settings: for enhancement of the inhibitory effect by pepstatin: plus 20 mg/kg pepstatin
Method: In the tests described below, gastric erosions produced in rats by the oral instillation of 1.0 mL of 0.75N HC1 were compared with those in rats which had been pretreated with the most preferred compound of Formula I (of Example 1) or with that compound and pepstatin. Comparison tests utilizing pretreatment with the newer commercial product, ranitidine, and with ranitidine and pepstatin, are also shown. Ranitidine is about 4 and 6 times as potent as cimetidine as an inhibitor of gastric acid secretion by the oral route in the rat and dog, respectively.
A modification of the method of Robert et al., [Gastroenterology, 77, 433-443 (1979)] was employed to produce gastric erosions. Adult male, Long Evans rats weighing 280-300 g (Blue Spruce Farms, Alton, New York) were used. The animals were individually caged and food and water were removed 24 and 18 hours, respectively, prior to testing. On the following day, the test compound was administered orally to the animals 30 minutes before 1.0 mL of 0.75N HC1 was instilled into the stomach by gavage. Animals treated with the combination of the test compound and pepstatin received the test compound 30 minutes before, and a fixed amount of pepstatin (20 mg/kg po) 10 minutes before, the hydrochloric acid was administered. […] One hour after receiving the HC1 solution, the animals were sacrificed with an intraperitoneal injection of 0.2 mL of T-61®, a euthanasia solution (National Laboratories Corp.).
The stomachs were removed from the animals, cut along the greater curvature, opened, rinsed with saline and pinned out flat in a standard position for macroscopic examination and scoring of erosions. The stomachs were photographed with a Polaroid® Close Up camera (Polaroid Corporation) and scoring was determined from the photographs. For scoring purposes, only those erosions with a minimum length of 1 mm were considered. The severity of gastric ulceration was defined for each animal as the sum of the maximum continuous lengths (in mm) of the erosions satisfying the above criteria. Percent inhibition of lesion formation was defined as
(mm erosion, vehicle control') - (mm erosion, test agent) 100. (mm erosion, vehicle control)
Data were analyzed using the t-test for unpaired data' and ED50 values were calculated from the dose response data using probit analysis [Finney, Probit Analysis, 3rd ed., University Press, Cambridge, England (1971)].
The compound of Example 1 and ranitidine (synthesized by the Medicinal Chemistry Research Department of Bristol Laboratories, Division of.Bristol-Myers Company) were dissolved in one equivalent of HC1 and the pH adjusted to 5.5 with NaOH. A suspension of pepstatin (Banyu Pharmaceutical Co. Ltd.) in water was made by homogenizing the compound with a few drops of Tween-80® (Atlas Chemical Industries). Each of these compounds were administered orally by gavage in a volume of 2 mL/kg.

Gastric Fistula Rat = assay: Gastric antisecretory activity in the Gastric Fistula Rat; type: in vivo, Long Evans rats; settings: sc, 95% confidence limits in parentheses
Method: Determination of Gastric Antisecretory Activity in the Gastric Fistula Rat
Male Long Evans rats weighing about 240-260 grams at the time of cannula implantation are used. […] The fistula components are designed and the operative procedure is carried out exactly as described in the above reference. Post operatively the animals are individually housed in solid bottom cages with sawdust and are allowed food and water ad libitum throughout the entire recovery period. Animals are not used for test purposes for at least 15 days after the operative procedure.
The animals are fasted but allowed water ad libitum for 20 hours before the testing procedure is to begin. Immediately prior to collection, the cannula is opened and the. stomach washed gently with 30-40 mL of warm saline or distilled water to remove any residual contents. The catheter is then screwed into the cannula in place of the plugging screw and the rat is placed in a clear plastic rectangular cage measuring 40 cm long, 15 cm wide and 13 cm high. The bottom of the cage has a slit approximately 1.5 cm wide and 25 cm long running down the center to accommodate the catheter which hangs through it. In this way the rat is not restricted and can move -freely about the cage during collection periods. The remainder of the assay is carried out as described by Ridley et al. [Research Comm. Chem. Path.
Gastric secretions collected during the first hour after washing the stomach are discarded as they may be contaminated. For oral evaluation, the catheter is then removed from the cannula and replaced with the plugging screw. Water (2 mL/kg) is administered orally via gastric intubation and the animal is returned to the cage for 45 minutes. After this time the plugging screw is removed and replaced with a catheter to which a small plastic vial has been attached to collect the gastric secretions. A two hour sample is collected (this represents the control secretion), the catheter removed and.replaced with the plugging screw. The test drug is now administered orally in a volume of 2 mL/kg via gastric intubation. Forty-five minutes later the plugging screw is again removed, replaced with the catheter attached to a small plastic vial and another 2 hour sample is collected. The secretions in the second sample are compared to those of the control sample in order to determine thee effects of the test drug.
When test compounds are to be evaluated parenterally, the animal is injected ip or sc with the test compound vehicle in a volume of 2 mL/kg immediately after discarding the initial 60 minute collection. A two hour sample is collected (control secretion) and the animals are injected either ip or sc with the test compound in a volume of 2 mL/kg. An additional two hour sample is collected and its secretions are compared to those of the control period to determing drug effects.
The samples are centrifuged in a graduated tube for volume determination. Titratable acidity is measured by titrating a one mL sample to pH 7.0 with 0.02N NaOH, using an Autoburet and an electrometric pH meter (Radiometer). Titratable acid output is calculated in microequivalents by multiplying the volume in milliliters by the acid concentration in milliequivalents per liter.
Results are expressed as percent inhibition relative to control readings. Dose response curves are constructed and ED50 values are calculated by regression analyses. At least three rats are used at each dosage level and a minimum of three dosage levels are utilized for determination of a dose response curve.

Structure (SMILES): Nc1c(NCCCOc2cccc(CN3CCCCC3)c2)c(=O)c1=O [Example 1]
- Potency Ratio ([1]; compound alone versus compound plus pepstatin (20 mg/kg po)): 3.5
- enhancement of the inhibitory effect by pepstatin ([1]; Example 1 at 25 mg/kg): the difference was not statistically significant
- enhancement of the inhibitory effect by pepstatin ([1]; Example 1 at 50 and 75 mg/kg, ranitidine at 25-100 mg/kg): significantly enhanced the inhibitory effect
- formation of gastric erosions ([1]; pretreatment po, compound alone, Example 1 at 25, 50 or 75 mg/kg, ranitidine at 25, 50, 75 or 100 mg/kg): decreased the formation of gastric erosions in a dose-related manner
- ED50 ([1]; rat, compound po 30 min before 1.0 mL 0.75N HCl, compound alone, probit analysis, read-out: ED50 (mg/kg) for Inhibition of Ulcer Formation, Alone): 115 mg/kg
- ED50 (mg/kg) for Inhibition of Ulcer Formation, with Pepstatin ([1]; rat, compound po 30 min before and pepstatin 20 mg/kg po 10 min before 1.0 mL 0.75N HCl): 33 mg/kg
- ED50 (Gastric Fistula Rat; Rattus norvegicus, read-out: ED50 sc): 0.023 µmol/kg
- Potency Ratio [cimetidine = 1.0] (Gastric Fistula Rat): 162 (77-328)*
